Measurements as given in patent US20210353579A1, “HIGH PENETRATION COMPOSITIONS AND USES THEREOF” (Techfields Pharma Co., Ltd., priority 2006, published 2021).

Tests used:
[1] = system: mice (SLAC:NOD-IDDM, type 1 diabetes); test: Blood glucose in type 1 diabetes mice, transdermal; format: in vivo, mouse
Procedure, shortened: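 NOD-IDDM type 1 diabetic mice (n=7) received prodrug transdermally on shaved back skin (~1.5 cm²), at a dose equivalent to 30 mg/kg NSAIA, once daily for 7 weeks. Non-fasted blood glucose was measured every 3 days at 3 pm from week 4 to week 7.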

[2] = system: normal rats; test: Blood glucose in normal rats, oral with food; format: in vivo, rat
[3] = system: Human breast cancer cells (BCAP-37); test: Human breast cancer xenograft in nude mice, topical; conditions: day 42; 30 μl of 5% (1.5 mg) topically every 8 hours from day 14; control 800 ± 100
Procedure, shortened: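 BCAP-37 tumour tissue (2-3 mm^3) was xenografted subcutaneously into the front leg of nude BALB mice, 7 per group. Compounds were applied topically as 30 μl of 5% solution (1.5 mg) in acetone or water.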

CC(=O)Oc1ccccc1C(=O)O.CCN(CC)CCOC(=O)c1ccccc1OC(C)=O [P-1, diethylaminoethyl acetylsalicylate.acetylsalicylic acid salt]
Blood glucose, Average ([1]; average fourth to seventh week, no fasting, equal to 30 mg/kg of NSAIAs once per day for 7 weeks): 6.5 ± 1 mmol/L
Blood glucose, Baseline ([1]; baseline, equal to 30 mg/kg of NSAIAs): 26.1 ± 5 mmol/L
Blood glucose, Normal rats, Average ([2]; average second to fifth week, equal to 20 mg/kg of NSAIAs every day): 6.5 ± 1 mmol/L
Blood glucose, Normal rats, Baseline ([2]; baseline, equal to 20 mg/kg of NSAIAs): 6.3 ± 1 mmol/L
Tumor size [3]: 150 ± 50 mm^3
